Source: the NIST ThermoML archive (doi:10.1021/je500380x)
± gives the expanded uncertainty stated by the source.

Assay: mn = molality of the nth substance listed, in mol/kg
Settings: 100 kPa, Liquid; for electrical conductivity: Alternating current cell with electrodes; for viscosity: Falling or rolling sphere viscometry; for mass density: Vibrating tube method

CCC(=O)OCCN1CCNCC1 [2-(piperazin-1-yl)ethyl propionate] + CCO
Settings	electrical conductivity, 318.15 K [S/m]	electrical conductivity, 323.15 K [S/m]	mass density, 318.15 K [kg/m3]	mass density, 323.15 K [kg/m3]	viscosity, 318.15 K [mPa·s]	viscosity, 323.15 K [mPa·s]
m1 = 0.05	–	0.0198 ± 0.00021	770.48 ± 0.16	765.98 ± 0.16	0.787 ± 0.01	0.725 ± 0.009
m1 = 0.1	–	0.0331 ± 0.0003	773.2 ± 0.16	768.7 ± 0.16	0.82 ± 0.01	0.755 ± 0.009
m1 = 0.1985	–	0.0536 ± 0.0005	778.55 ± 0.16	774.05 ± 0.16	0.86 ± 0.011	0.79 ± 0.01
m1 = 0.3005	–	0.0711 ± 0.0007	784.23 ± 0.15	779.73 ± 0.16	0.916 ± 0.011	0.84 ± 0.01
m1 = 0.4001	–	0.0856 ± 0.0009	789.7 ± 0.15	785.21 ± 0.15	0.972 ± 0.012	0.889 ± 0.011
m1 = 0.5007	–	0.1004 ± 0.001	795.39 ± 0.15	790.92 ± 0.15	1.043 ± 0.013	0.951 ± 0.012
m1 = 0.5998	–	0.1131 ± 0.0011	800.91 ± 0.15	796.46 ± 0.15	1.113 ± 0.014	1.014 ± 0.013
m1 = 0.7002	–	0.1239 ± 0.0012	806.67 ± 0.15	802.23 ± 0.15	1.194 ± 0.015	1.086 ± 0.013
m1 = 0.8	–	0.137 ± 0.0014	812.45 ± 0.15	808.02 ± 0.15	1.299 ± 0.016	1.178 ± 0.015
m1 = 0.8957	–	0.146 ± 0.0015	818.24 ± 0.15	813.82 ± 0.15	1.381 ± 0.017	1.251 ± 0.015
m1 = 1	–	0.159 ± 0.0016	824.21 ± 0.14	819.82 ± 0.15	1.492 ± 0.018	1.348 ± 0.017
m1 = 1.198	–	0.178 ± 0.0018	835.97 ± 0.14	831.61 ± 0.14	1.741 ± 0.022	1.567 ± 0.019
m1 = 1.401	–	0.196 ± 0.002	848.63 ± 0.14	844.32 ± 0.14	2.071 ± 0.026	1.855 ± 0.023
m1 = 1.602	–	0.209 ± 0.002	860.7 ± 0.14	856.43 ± 0.14	2.503 ± 0.031	2.446 ± 0.03
m1 = 1.8	–	0.222 ± 0.002	873.18 ± 0.13	868.95 ± 0.13	3.057 ± 0.038	2.713 ± 0.034
m1 = 2.001	0.211 ± 0.002	0.231 ± 0.002	886.65 ± 0.13	882.65 ± 0.13	3.912 ± 0.048	3.443 ± 0.043
m1 = 2.198	0.214 ± 0.002	0.237 ± 0.002	898.68 ± 0.13	894.55 ± 0.13	4.647 ± 0.057	4.068 ± 0.05
m1 = 2.397	0.212 ± 0.002	0.236 ± 0.002	912.04 ± 0.13	907.95 ± 0.13	5.859 ± 0.072	5.091 ± 0.063
m1 = 2.597	0.207 ± 0.002	0.232 ± 0.002	925.4 ± 0.12	921.36 ± 0.12	8.129 ± 0.1	6.903 ± 0.085
m1 = 2.796	0.199 ± 0.002	0.224 ± 0.002	938.75 ± 0.12	934.75 ± 0.12	10.27 ± 0.13	8.728 ± 0.11
m1 = 3.006	0.188 ± 0.0019	0.213 ± 0.002	953.35 ± 0.12	949.41 ± 0.12	14.2 ± 0.18	12.02 ± 0.15
